Here are results for 1 compound from patent US4021574A, “Antidandruff compositions containing 9-(4-lower alkoxy-2,3,6-trilower-alkylphenyl)-3,7-dimethyl-nona-2,4,6,8-tetraen-1-o ic acid lower alkyl amides” (Hoffmann-La Roche Inc., priority 1974, dated 1977).

For series [1], the system named is corneocytes on the scalp. Kind of series: Antidandruff activity: number of corneocytes on the scalp of male volunteers. The series is classed as in vivo, human (male volunteers). The procedure: Dermatology, Vol. 53, p. 107 (1969). Each volunteer was treated by applying to the scalp 15 ml. of 0.1% by weight solution thereof daily for seven days. The number of corneocytes on the scalp of each subject was determined one day before treatment began and 1 day after termination of treatment.

Series [2] in a line: LD50 s.c. in the mouse. The following applies: in vivo, sc.

The structures appear in SMILES notation. A value given as a limit tells only on which side of the number the result lay.

By LD50 is commonly meant the dose at which mortality reaches 50%. Low readings indicate greater toxicity, high ones lower toxicity. Turning to `CCNC(=O)/C=C(C)/C=C/C=C(C)/C=C/c1c(C)cc(OC)c(C)c1C` [9-(4-methoxy-2,3,6-trimethylphenyl)-3,7-dimethyl-nona-2,4,6,8-tetraen-1-oic acid ethyl amide], the “Number of Corneocytes, one day post treatment” value in series [1] (Volunteer No. 1, 15 ml of 0.1% by weight solution on scalp daily for seven days, one day pre-treatment: 2100) turned out to be 1400; in series [1] (Volunteer No. 2, 15 ml of 0.1% by weight solution on scalp daily for seven days, one day pre-treatment: 5100), 1500; in series [1] (Volunteer No. 3, 15 ml of 0.1% by weight solution on scalp daily for seven days, one day pre-treatment: 3250) it was 1600; in series [1] (Volunteer No. 4, 15 ml of 0.1% by weight solution on scalp daily for seven days, one day pre-treatment: 1900), 1600. Further, the “decline in number of corneocytes (average)” value in series [1] (four volunteers, one day post treatment vs one day pre-treatment, 15 ml of 0.1% by weight solution daily for seven days) turned out to be 50%. The “Number of Corneocytes, one day post treatment, Total” value in series [1] (total of four volunteers, 15 ml of 0.1% by weight solution on scalp daily for seven days, one day pre-treatment total: 12350) was determined as 6100. Also, the LD50 in series [2] was greater than 4000 mg/kg.
